Converted amounts (≈) assume the structure as drawn. Where two headings read alike, the source gives them in different places.
Legend:
[1] = test system: midgut regions of third-instar Ae. aegypti larvae; experiment: histologic analysis by Carson's trichrome staining; assay type: in vivo, Aedes aegypti; conditions: honokiol 6.5 mg/L or magnolol 25 mg/L (LC50), 24 h
Protocol: At 24 h post-treatment, Ae. aegypti larvae untreated and treated with honokiol or magnolol were immediately fixed in Bouin’s fluid[75] at 4 °C for 24 h. Larvae were then dehydrated in an ethanol-tetrahydrofuran-xylene series and embedded in Paraplast X-tra (Sigma-Aldrich). The embedded preparations of the larvae were sectioned at a 5 μm thickness using a Microm HM 340E rotary microtome (Thermo Scientific, Walldorf, Germany). The sections were dried at 40 °C overnight, subsequently deparaffinized with CitriSolv (Fisher Scientific, Fair Lawn, NJ, USA), and rehydrated with a series of ethanol in phosphate-buffered saline (PBS) solutions[30]. The rehydrated sections were stained in Weigert’s iron hematoxylin for 30 s, followed by Carson’s trichrome staining procedure. This staining protocol stained the columnar and goblet cells of the midgut blue and red, respectively. These sections were then dehydrated, cleared in xylene, and mounted in EMS Permount (Electron Microscopy Sciences, Hatfield, PA, USA). Images were observed and captured using a DMIL LED microscope (Leica Microsystems, Wetzlar, Germany) equipped with a Leica MC 170 HD. Observations were taken of 15 larvae under the microscope.

[2] = test system: midgut and anal gills of third-instar Ae. aegypti larvae; experiment: transmission electron microscopy analysis of midgut and anal gills; assay type: in vivo, Aedes aegypti; conditions: honokiol 6.5 mg/L or magnolol 25 mg/L (LC50), 24 h
Protocol: At 24 h post-treatment, the midgut and anal gills of the untreated and treated Ae. aegypti larvae were fixed in Karnovsky’s fixative (2% (v/v) glutaraldehyde and 2% (v/v) paraformaldehyde in 0.05 M sodium cacodylate buffer (pH 7.2)) at 4 °C in darkness for 2–4 h and were washed three times with the same buffer. The specimens were post-fixed with 1% (w/v) osmium tetroxide in the same buffer at 4 °C for 2 h and washed with DW three times. The post-fixed specimens were then dehydrated through a graded series of ethanol with increasing concentrations up to 100% for 15 min. The specimens were further treated with propylene oxide twice each for 15 min as a transitional fluid and embedded in Spurr’s resin[77]. Ultrathin sections (approximately 50 nm thickness) were cut with a UC6 ultramicrotome (Leica Microsystems, Wetzlar, Germany) and stained in 2% aqueous uranyl acetate for 7 min at room temperature as well as with Reynolds lead citrate[78] for 7 min. The sections were mounted on copper grids, and micrographs were obtained from a CM120 transmission electron microscope (Philips Electronics, Amsterdam, Netherlands) at 80 kV. Images were captured using a MegaView III digital camera (Olympus-SIS, Lakewood, CO, USA). Observations were taken of 12 larvae via TEM.

[3] = test system: whole-body homogenate from third-instar Aedes aegypti larvae (adenylate cyclase activity); experiment: determination of cyclic AMP levels (octopamine-sensitive adenylate cyclase activity); assay type: biochemical; conditions: 100 μM; compared with control group / octopamine
Protocol: The method of Perumalsamy et al.[42] was used to assess the in vitro octopamine-sensitive adenylate cyclase activity of the test compounds. In brief, whole bodies of 75 Ae. aegypti larvae (106.2 mg) were homogenized in 500 µL of 2 mM Tris-maleate buffer (pH 7.4) containing 0.8 mM ethylene glycol tetraacetic acid (EGTA). The adenylate cyclase activity was determined using the cAMP Biotrak Enzymeimmunoassay system according to the manufacturer’s protocol. The assay was conducted in a total volume of 100 µL containing 80 mM Tris-maleate buffer, 5 mM theophylline, 2 mM MgSO4, 0.5 mM adenosine triphosphate (ATP), 0.2 mM EGTA, 50 µL of whole-body homogenate (equivalent to 4.12 µg protein), and 1 µL of the test compounds in Tris-maleate buffer containing 0.2% ethanol. After incubation at 20 °C for 5 min, the reaction was initiated by addition of ATP. Incubation was performed at 30 °C for 3 min in a shaking water bath. The reaction was stopped by boiling for 2 min, and then, the assay tube was cooled and centrifuged at 8,000 × g for 10 min. Fifty microliters of the supernatant were assayed for cAMP levels.
Polystyrene microplates (1 strip of 8 wells) coated with a goat anti-mouse polyclonal antibody were used. Fifty microliters of a mouse monoclonal antibody solution were added to each well except for the blank wells (or the nonspecific binding wells). The wells covered with the adhesive strip were incubated at 25 °C for 1 h in a shaking incubator (480 rpm). After washing with 400 µL of wash buffer four times, 50 μL of the two neolignan samples for cAMP determination and cAMP standard were added to wells. Control, blank (nonspecific binding), and zero standard wells were supplemented with 50 μL of a diluent RD5-55 buffer. […] The optical densities at 450 and 540 nm were determined using the microplate reader described above. The readings at 540 nm were subtracted from the readings at 450 nm. The cAMP concentrations are expressed as nmol/µg protein. The results are expressed as the means ± SEs of triplicate samples from three independent experiments.

[4] = test system: third-instar larvae of insecticide-susceptible Aedes aegypti; experiment: contact mortality bioassay, 24 h exposure; assay type: in vivo; conditions: for LC50: Aedes aegypti, 24 h, read-out: LC50 (mg/L) (95% CI)
Protocol: (§1) A contact mortality bioassay[25] was used to evaluate the toxicity of all compounds against third-instar larvae of the four mosquito species. Each test compound in methanol was suspended in DW with Triton X-100 (20 µL/L). Groups of 20 mosquito larvae were separately placed into paper cups (270 mL) containing each compound solution (250 mL). […] Negative controls consisted of a methanol–Triton X-100 solution in DW.
(§2) Treated and control (methanol–Triton X-100 solution only) larvae were maintained under the same conditions as those used for colony maintenance without providing food. Larval mortalities were determined 24 h post-treatment. […] All treatments were performed three times using 20 larvae per replicate.
(§3) The concentration of the test compounds required to produce 50% AChE inhibitory activity (IC50) was determined using the SAS 9.13 program (Cary: SAS Institute; 2014). Concentration-mortality data were subjected to probit analysis using the SAS 9.13 program. […] Statistical analyses were performed using the SAS 9.13 program. Multiple linear regression and correlation analysis were performed using the SPSS 24 program (Armonk: IBM Corp.; 2016).

[5] = test system: third-instar larvae of insecticide-susceptible Culex pipiens pallens; experiment: contact mortality bioassay, 24 h exposure; assay type: in vivo; conditions: for LC50: Culex pipiens, 24 h, read-out: LC50 (mg/L) (95% CI)
Protocol: as §1, §2, §3

[6] = Table 7, structure-activity series, 24 h exposure
[7] = Table 3, 24 h exposure, listed as Pure honokiol
[8] = Table 6, structure-activity series, 24 h exposure
[9] = Table 2, KS-CP strain, 24 h exposure, listed as Pure honokiol

Structure (SMILES)	histology of midgut region (Carson's staining) [1]	histopathological effects on anal gills (TEM) [2]	histopathological effects on midgut (TEM) [2]	cAMP levels [3]	LC50 ([4]; Table 3, 24 h exposure)	LC50 [4, 6]	LC90 (mg/L) (95% CI) ([4]; Table 3, 24 h exposure, listed as Natural honokiol)	LC50 (mg/L) (95% CI) [4, 7]	LC90 (mg/L) (95% CI) [4, 7]	times less toxic than temephos ([4]; from 24 h LC50 values)	LC50 ([5]; Table 2, KS-CP strain, 24 h exposure)	LC50 [5, 8]	times more toxic than the structural isomer magnolol ([5]; Cx. pipiens pallens and Ae. aegypti larvae)	LC90 (mg/L) (95% CI) ([5]; Table 2, KS-CP strain, 24 h exposure, listed as Natural honokiol)	LC50 (mg/L) (95% CI) [5, 9]	LC90 (mg/L) (95% CI) [5, 9]	LC90 (mg/L) (95% CI) [5, 8]	times less toxic than temephos ([5]; from 24 h LC50 values)	LC90 (mg/L) (95% CI) [4, 6]
C=CCc1ccc(O)c(-c2ccc(O)c(CC=C)c2)c1 [Honokiol, 2-(4-hydroxy-3-prop-2-enyl-phenyl)-4-prop-2-enyl-phenol]	indistinct damaged midgut epithelial layers	cytoplasmic disruption with damaged anal gill cells	devastated cellular material and extruded masses in the cytoplasm	significantly higher than that induced by the control group	6.51 mg/L (≈ 24.4 µM)	6.51 mg/L (≈ 24.4 µM)	22.59 (17.70–34.15) mg/L	6.48 (5.11–7.90) mg/L	23.84 (18.41–37.36) mg/L	521 times	6.32 mg/L (≈ 23.7 µM)	6.32 mg/L (≈ 23.7 µM)	approximately 4 times	18.78 (15.30–25.99) mg/L	6.38 (5.01–7.78) mg/L	19.30 (15.64–27.01) mg/L	18.78 (15.30–25.99) mg/L	390 times	
C=CCc1ccc(O)c(-c2cc(CC=C)ccc2O)c1 [Magnolol, magnolol]	indistinct midgut epithelial layers and PMs	damaged outer membranes of thick cuticles, which led to internal cytoplasmic destruction	complete disappearance of nuclei as well as cytoplasmic contents	significantly higher than that induced by the control group		25.7 mg/L (≈ 96.5 µM)						26 mg/L (≈ 97.6 µM)					80.42 (63.28–117.4) mg/L		83.14 (64.68–124.4) mg/L
